According to publication PMC11428279, “Exploring Structure–Activity Relationships and Modes of Action of Laterocidine” (ACS Central Science, 2024):
≈ marks a conversion by molar mass, not a printed value. Each block holds one compound with its values, some of them ahead of it. Bridge positions count the residues as written; N and C are the ends. Square brackets hold non-standard residues; d marks the D form. Peptide text beside a SMILES is read from it. * marks the point of attachment. dOrn = NCCC[C@@H](N)C(=O)O; Nonanoyl = CCCCCCCCC(=O)*; Orn = NCCC[C@H](N)C(=O)O

Legend:
[1] = test system: human kidney proximal tubular (HK-2) cells; assay: Viability of human kidney proximal tubular cells; type: cell-based; conditions: 24 h of treatment, fluorescence microscopy, mean ± SD, n = 3
Text: The fluorescence microscopy method used to culture HK-2 cells and the use of fluorescence microscopy to determine the percent cell viability (%) following peptide treatment are the same as published previously.[59],[60]

P. aeruginosa PAO1R [2] = assay: Static time-kill study; type: cell-based; conditions: 8 × MIC, over 24 h
Experimental: (§1) MICs for laterocidine and its various analogues were determined by broth microdilution[49] for the following polymyxin-susceptible ATCC and clinical isolates: P. aeruginosa FADDI-PA022, FADDI-PA001, FADDI-PA025, FADDI-PA070, FADDI-PA060; A. baumannii FADDI-AB134, FADDI-AB034, FADDI-AB030, FADDI-AB174, FADDI-AB241; K. pneumoniae FADDI-KP032, FADDI-KP022, BM1, FADDI-KP065, FADDI-KP064, FADDI-KP003; and E. cloacae FADDI-EC001, FADDI-EC003, and FADDI-EC006. Experiments were performed with cation-adjusted Mueller–Hinton broth (CAMHB) in 96-well polystyrene microtiter plates. Wells were inoculated with 100 μL of bacterial suspension prepared in CAMHB (containing ∼10^6 CFU/mL) and 100 μL of CAMHB containing increasing concentrations of polymyxins (0–32 μg/mL). MIC measurements were performed in duplicate, with the MIC being the lowest concentration at which visible growth was inhibited following 18–20 h of incubation at 37 °C. Bacterial killing kinetics was investigated over 24 h as described previously.[50]

P. aeruginosa PAO1 [3] = assay: Static time-kill study; type: cell-based; conditions: 8 × MIC, over 24 h
Experimental: as §1

female Swiss mice = assay: Acute toxicity in mice (maximum tolerable dose); type: in vivo; conditions: intravenous bolus via lateral tail vein, free base, N = 3
Experimental: (§2) All animal studies were approved by the Monash University Animal Ethics Committee and involved female Swiss mice (22–28 g, 7-week-old) housed in microisolators within a PC2 animal laboratory. Mice were kept under a 12/12 h dark/light cycle at 20–24 °C and 50–70% ambient humidity.
For the acute toxicity studies, peptide 11 and laterocidine solutions were prepared in 0.9% saline and stored at 4 °C before use. All mice were administered an intravenous bolus of one peptide (mg/kg free base) via a lateral tail vein (≤0.1 mL). Following the injection, mice were released back into their respective home cages and individually monitored for 24 h for signs of clinical toxicity. Mice displaying any signs of toxicity were humanely euthanized according to the recommended Euthanasia/Humane Experimental End point Criteria.

P. aeruginosa PAO1R [4] = assay: MIC; type: cell-based; conditions: polymyxin-resistant paired strain of PAO1
P. aeruginosa PAO1 [5] = assay: MIC; type: cell-based; conditions: polymyxin-susceptible reference strain
A. baumannii 5075D = type: cell-based; conditions: lacks lipid A in the outer membrane
[6] = test system: A. baumannii 5075 (wild type); assay: MIC; type: cell-based
A. baumannii 5075R = type: cell-based; conditions: lipid A modified with phosphoethanolamine
[7] = test system: Gram-negative strains of P. aeruginosa, A. baumannii, K. pneumoniae, and E. cloacae; type: cell-based
Experimental: as §1

[8] = test system: P. aeruginosa FADDI-PA070; assay: Neutropenic murine bloodstream infection model; type: in vivo, P. aeruginosa in mice; conditions: for Bacteria load in blood: 8 mg/kg iv (free base) 2 h postinoculation, neutropenic mice, 4 h time point, N = 3, mean
Experimental: as §2
The neutropenic bloodstream infection model was undertaken as previously described.[39] Mice were rendered neutropenic through intraperitoneal injections of cyclophosphamide administered 4 days (150 mg/kg) and 1 day (100 mg/kg) prior to inoculation. Bloodstream infection was established by administering a 50 μL bolus of early log-phase bacterial suspension (4 × 10^8 CFU/mL). Laterocidine, peptide 11, and polymyxin B solutions were prepared in sterile saline at a concentration of 1 mg/mL (free base). Two hours postinoculation, mice (n = 3) were injected intravenously with either polymyxin B at 4 mg/kg (free base), peptide 11 at 8 mg/kg (free base), laterocidine at 8 mg/kg (free base), or saline (control mice). Blood was collected immediately after (0 h) and 4 h after drug administration, serially diluted with sterile saline, and appropriately diluted samples manually plated on nutrient agar prior to overnight incubation at 37 °C. Colonies were counted manually and the bacterial load (log10 CFU/mL) in the blood of each mouse calculated. In vivo efficacy was calculated as the difference between the log10 CFU/mL blood values of treated and control mice 4 h postdosing (Δlog10 CFU/mL blood = log10 [treated] CFU/mL blood–log10[control] CFU/mL blood).[54]

A. baumannii = type: cell-based
Experimental: as §1

K. pneumoniae = type: cell-based
Experimental: as §1

P. aeruginosa = type: cell-based; conditions: compared with native laterocidine
Experimental: as §1

E. cloacae = type: cell-based; conditions: compared with native laterocidine
Experimental: as §1

[9] = compared with native laterocidine

Compound: CC[C@H](C)CCCCC(=O)N[C@@H](CCN)C(=O)N[C@H](C(=O)N[C@@H](CCN)C(=O)N[C@H]1CCNC(=O)[C@H]([C@@H](C)O)NC(=O)[C@H](CCN)NC(=O)[C@H](CCN)NC(=O)[C@H](CC(C)C)NC(=O)[C@@H](Cc2ccccc2)NC(=O)[C@H](CCN)NC1=O)[C@@H](C)O [polymyxin B, reference compound] (HELM PEPTIDE1{[CC[C@H](C)CCCCC(=O)[*:2]].[Dab].T.[Dab].[Dab].[Dab].[dF].L.[Dab].[Dab].T}$PEPTIDE1,PEPTIDE1,5:R3-11:R2$$$V2.0; N-terminus assumed; bridges inferred)
cell viability of HK-2 cells ([1]; 0.01 mM): 74.8 ± 2.6%
cell viability of HK-2 cells ([1]; 0.1 mM): 6.4 ± 3.6%
time-kill outcome against P. aeruginosa PAO1R (P. aeruginosa PAO1R [2]): no viable bacteria detected at 8 × MIC on multiple occasions, including at 24 h
time-kill outcome against P. aeruginosa PAO1 (P. aeruginosa PAO1 [3]): no viable bacteria were detected at 1 h, rapid and significant regrowth subsequently occurred
maximum tolerable dose (MTD), Iv (Bolus) (female Swiss mice): 5 mg/kg
MIC, P. aeruginosa PAO1R (P. aeruginosa PAO1R [4]): 16 µg/mL (≈ 13.3 µM)
MIC, P. aeruginosa PAO1 (P. aeruginosa PAO1 [5]): 0.5 µg/mL (≈ 0.415 µM)

Compound: CCCCCCCCC(=O)N[C@H](CO)C(=O)N[C@H](Cc1ccc(O)cc1)C(=O)N[C@H](Cc1c[nH]c2ccccc12)C(=O)N[C@H](CCCN)C(=O)N[C@@H](CCCN)C(=O)NCC(=O)N[C@H](CCCN)C(=O)N[C@@H](Cc1c[nH]c2ccccc12)C(=O)N[C@@H]1C(=O)N[C@@H]([C@@H](C)CC)C(=O)N[C@@H](CC(N)=O)C(=O)NCC(=O)NCC(=O)O[C@@H]1C [Peptide 11] (Nonanoyl-[dS][dY][dW][dOrn][Orn]G[dOrn]WTINGG; ester 9-C)
MIC, A. baumannii 5075 D (A. baumannii 5075D): 32 µg/mL (≈ 19.9 µM)
time-kill outcome against P. aeruginosa PAO1R (P. aeruginosa PAO1R [2]): completely inhibiting the growth
time-kill outcome against P. aeruginosa PAO1R (P. aeruginosa PAO1R [2]; listed as peptide 11): no viable bacteria were detected at 24 h
time-kill outcome against P. aeruginosa PAO1 (P. aeruginosa PAO1 [3]): substantial bacterial regrowth nevertheless occurred at all concentrations
MIC, A. baumannii 5075 S [6]: 8 µg/mL (≈ 4.98 µM)
maximum tolerable dose (MTD), Iv (Bolus) (female Swiss mice): 13.2 mg/kg
MIC, P. aeruginosa PAO1R (P. aeruginosa PAO1R [4]): 2 µg/mL (≈ 1.25 µM)
MIC, P. aeruginosa PAO1 (P. aeruginosa PAO1 [5]): 2 µg/mL (≈ 1.25 µM)
MIC, A. baumannii 5075 R (A. baumannii 5075R): 32 µg/mL (≈ 19.9 µM)
MICs against all tested strains (range) ([7]; all tested Gram-negative strains): identical MICs to laterocidine
Bacteria load in blood [8]: 2.70%
Bacteria load in blood ([8]; listed as peptide 11): 2.7%
fold increase in antimicrobial activity compared to native laterocidine (peptide 1) ([8]; murine bloodstream infection model, 8 mg/kg): 8 fold

Compound: CCCCCCCCC(=O)N[C@H](C)C(=O)N[C@H](Cc1ccc(O)cc1)C(=O)N[C@H](Cc1c[nH]c2ccccc12)C(=O)N[C@H](CCCN)C(=O)N[C@@H](CCCN)C(=O)NCC(=O)N[C@H](CCCN)C(=O)N[C@@H](Cc1c[nH]c2ccccc12)C(=O)N[C@@H]1C(=O)N[C@@H]([C@@H](C)CC)C(=O)N[C@@H](CC(N)=O)C(=O)NCC(=O)NCC(=O)O[C@@H]1C [Peptide 35] (Nonanoyl-[dA][dY][dW][dOrn][Orn]G[dOrn]WTINGG; ester 9-C)
MICs against A. baumannii (range over strains) (A. baumannii): ≥ 32 µg/mL
MICs against K. pneumoniae (range over strains) (K. pneumoniae): 2 to 32 µg/mL

More lines, main results first:

MICs against A. baumannii (range over strains) (A. baumannii): 8 to 32 µg/mL
fold increase in MIC (loss of activity) against A. baumannii (A. baumannii; [9]): 2–8 fold
Compound: CCCCCCCCC(=O)N[C@H](CO)C(=O)N[C@H](Cc1ccc(O)cc1)C(=O)N[C@H](Cc1c[nH]c2ccccc12)C(=O)N[C@H](CCCN)C(=O)N[C@@H](CCCN)C(=O)NCC(=O)N[C@H](CCCN)C(=O)N[C@@H](Cc1c[nH]c2ccccc12)C(=O)N[C@H]1COC(=O)CNC(=O)CNC(=O)[C@H](CC(N)=O)NC(=O)[C@H]([C@@H](C)CC)NC1=O [Peptide 15] (Nonanoyl-[dS][dY][dW][dOrn][Orn]G[dOrn]WSINGG; ester 9-C)
fold less activity against the two MDR strains of P. aeruginosa (P. aeruginosa): 8–16 fold

fold increase in MIC for two E. cloacae strains (E. cloacae): 2 fold
fold increase in MIC (loss of activity) against all strains / all species [7, 9]: no more than 1 fold
Compound: CCCCCCCCC(=O)N[C@H](CO)C(=O)N[C@H](Cc1ccc(O)cc1)C(=O)N[C@H](Cc1c[nH]c2ccccc12)C(=O)N[C@H](CCCN)C(=O)N[C@@H](CCCN)C(=O)NCC(=O)N[C@H](CCCN)C(=O)N[C@@H](Cc1c[nH]c2ccccc12)C(=O)N[C@@H]1C(=O)N[C@@H]([C@@H](C)CC)C(=O)N[C@@H](CC(N)=O)C(=O)NCC(=O)N[C@@H](C)C(=O)O[C@@H]1C [Peptide 24] (Nonanoyl-[dS][dY][dW][dOrn][Orn]G[dOrn]WTINGA; ester 9-C)
